Experiments:
[1] = Spectral (photophysical) properties of representative derivatives in DCM at room temperature; format: physicochemical; parameters: τf (fluorescent lifetime): unit not given here; details: for ΔStokes (Stokes shift=λem−λabs) / λabs (maximum absorption band more than 300 nm) / λem (excited at the longest maximum absorption band) / λex (excited wavelength) / τf (fluorescent lifetime) / ϕf (quantum yield): DCM, RM, 10−5M; for ϕf (quantum yield): quinine sulfate and rhodamine 6G as standard; for Effect of substituent on the fluorescent properties / emission: CH2Cl2 at RT
From the text: The photo-physical properties of representative salts are studied in CH2Cl2 at RT (FIG. 1).
The corresponding absorption, emission and excitation, spectra are depicted in FIGS. 3, 4 and 5. […] The compounds display good quantum yields upto 0.76.
a The maximum absorption bands more than 300 nm; b Excited at the longest maximum absorption band in CH2Cl2; ^cExcited wavelength; ^dStokes shift=λem−λabs; ^eQuinine sulfate and rhodamine 6G was used as the standard; ^fFluorescent lifetime
The current invention provides compounds that display brightly fluorescence as well as a good ϕf. The salts are a novel class of fluorescent materials that contain a pyridinium-oxazole functional group and the photo-physical properties of representative salts are studied in CH2Cl2 at RT The absorption and excitation maxima, the photoluminescence (PL) maxima and quantum yields (FF), as well as the excited state lifetimes (tf) of these compounds in CH2Cl2 solution are listed in Tables 3, whereas the corresponding absorption, emission, excitation spectra are depicted in FIGS. 3, 4 and 5. […] These observations are indicative of a predominant π-π* character for the lowest excited state, and the life time tf values are consistent with a singlet multiplicity. Most of these compounds display good quantum yields upto 0.76 (3n). The radiative rate constants are barely affected by the substitution pattern, an indication of the similar excited state character for all compounds.

MCF-7 cells = experiment: Localization and staining of mitochondria in living MCF-7 cells by fluorescence microscopy, with MitoTracker Green costaining; format: cell-based; details: 1 μM, 1 h
Description: MCF-7 cells were obtained from National Centre for Cell Science, Pune, India. For bio imaging purpose, the cells were seeded in a 6 well plate at a density of 10^5 cells/mL in Dulbecco's Modified Eagle's Medium+Ham's F12 containing 10% fetal bovine serum and a 0.1% antibiotic solution for 24 h at […] and 5% CO2 for adherence
MCF-7 cells (1×10^4 cells/mL/well) were seeded in a 6-well tissue culture plate for 48 h. The cells were then treated with 1 μM concentration of different organic molecules for 30 minutes. After thorough washing with 1×PBS (P^H 7.4), the cells are fixed used paraformaldehye (4% in PBS) for 15 minutes. Then cells were washed using 1×PBS twice. Further cells are permeated using 0.4% triton X in PBS for 30 seconds followed by treatment with 1 μg/mL of DAPI solution for 15 minutes. The cells are again ished twice with 1×PBS (P^H 7.4). Finally, a confocal fluorescence microscope (Nikon Eclipse: TE 2000-E, Japan). Bioimaging studies are carried out using red and green filters. (FIG. 2)
Cells are cultured and maintained as described above. Cells were treated with 1 μM compound for 30 min followed by washing with PBS. Further cells were treated with […] MG for 10 min and then washed with PBS. Cells were fixed and treated with DAPI as described above.
MCF-7 cells were incubated with 1 μM of 3n for 1 h, and excess dyes were washed away by buffer solution.

F[B-](F)(F)F.c1ccc2c(c1)-c1cccc3oc(-c4cccc5ccccc45)c-2[n+]13
melting point: 198 to 200 °C

Cc1ccc(-c2oc3cccc4[n+]3c2-c2ccccc2-4)cc1.F[B-](F)(F)F
melting point: 222 to 223 °C

CC(C)c1ccc(-c2oc3cccc4[n+]3c2-c2ccccc2-4)cc1.F[B-](F)(F)F
melting point: 214 to 215 °C

CCCCOc1ccc(-c2oc3cccc4[n+]3c2-c2ccccc2-4)cc1.F[B-](F)(F)F
melting point: 183 to 185 °C

CCCCC(=O)c1ccc(-c2oc3cccc4[n+]3c2-c2ccccc2-4)cc1.F[B-](F)(F)F
melting point: 202 to 204 °C

COc1ccccc1-c1oc2cccc3[n+]2c1-c1ccccc1-3.F[B-](F)(F)F
melting point: 228 to 229 °C

Clc1cccc(-c2oc3cccc4[n+]3c2-c2ccccc2-4)c1.F[B-](F)(F)F
melting point: 204 to 206 °C

Cc1cccc2c1-c1cccc3oc(-c4ccccc4)c-2[n+]13.F[B-](F)(F)F
melting point: 220 to 221 °C

Cc1ccc2c(c1)-c1cccc3oc(-c4ccccc4)c-2[n+]13.F[B-](F)(F)F
melting point: 224 to 226 °C

F[B-](F)(F)F.Fc1ccc2c(c1)-c1cccc3oc(-c4ccccc4)c-2[n+]13
melting point: 255 to 256 °C

Clc1ccc2c(c1)-c1cccc3oc(-c4ccccc4)c-2[n+]13.F[B-](F)(F)F
melting point: 208 to 210 °C

Clc1ccc2c(c1)-c1c(-c3ccccc3)oc3cccc-2[n+]13.F[B-](F)(F)F
melting point: 206 to 208 °C

F[B-](F)(F)F.c1ccc(-c2oc3cccc4[n+]3c2-c2ccccc2-4)cc1 [3a, 1-phenylbenzo[a]oxazolo[4,3,2-cd]indolizin-10-ium tetrafluoroborate]
ΔStokes (Stokes shift=λem−λabs) [1]: 036 nm
λabs (maximum absorption band more than 300 nm) [1]: 368 nm
λem (excited at the longest maximum absorption band) [1]: 404 nm
λex (excited wavelength) [1]: 338 nm
τf (fluorescent lifetime) [1]: 1.2
ϕf (quantum yield) [1]: 0.10
melting point: 192 to 193 °C

F[B-](F)(F)F.c1ccc2c(c1)-c1cccc3oc(-c4ccc5ccccc5c4)c-2[n+]13 [3c, 1-(naphthalen-2-yl)benzo[a]oxazolo[4,3,2-cd]indolizin-10-iumtetrafluoroborate]
Effect of substituent on the fluorescent properties / emission [1]: stronger effect on the fluorescent properties
ΔStokes (Stokes shift=λem−λabs) [1]: 071 nm
λabs (maximum absorption band more than 300 nm) [1]: 410 nm
λem (excited at the longest maximum absorption band) [1]: 481 nm
λex (excited wavelength) [1]: 364 nm
τf (fluorescent lifetime) [1]: 5.2
ϕf (quantum yield) [1]: 0.49

F[B-](F)(F)F.c1ccc2c(c1)-c1cccc3oc(-c4cc5ccccc5c5ccccc45)c-2[n+]13 [3d, 1-(phenanthren-9-yl)benzo[a]oxazolo[4,3,2-cd]indolizin-10-ium tetrafluoroborate]
Effect of substituent on the fluorescent properties / emission [1]: stronger effect on the fluorescent properties
ΔStokes (Stokes shift=λem−λabs) [1]: 076 nm
λabs (maximum absorption band more than 300 nm) [1]: 411 nm
λem (excited at the longest maximum absorption band) [1]: 487 nm
λex (excited wavelength) [1]: 365 nm
τf (fluorescent lifetime) [1]: 7.2
ϕf (quantum yield) [1]: 0.54
melting point: 230 to 232 °C

COc1ccc(-c2oc3cccc4[n+]3c2-c2ccccc2-4)cc1.F[B-](F)(F)F [3j, 1-(4-methoxyphenyl)benzo[a]oxazolo[4,3,2-cd]indolizin-10-ium tetrafluoroborate]
Effect of substituent on the fluorescent properties / emission [1]: only a modest effect on the fluorescent properties
ΔStokes (Stokes shift=λem−λabs) [1]: 053 nm
λabs (maximum absorption band more than 300 nm) [1]: 405 nm
λem (excited at the longest maximum absorption band) [1]: 458 nm
λex (excited wavelength) [1]: 338 nm
τf (fluorescent lifetime) [1]: 2.4
ϕf (quantum yield) [1]: 0.42
melting point: 190 to 192 °C

F[B-](F)(F)F.Fc1ccc(-c2oc3cccc4[n+]3c2-c2ccccc2-4)cc1 [3l, 1-(4-fluorophenyl)benzo[a]oxazolo[4,3,2-cd]indolizin-10-ium tetrafluoroborate]
Effect of substituent on the fluorescent properties / emission [1]: only a modest effect on the fluorescent properties
ΔStokes (Stokes shift=λem−λabs) [1]: 042 nm
λabs (maximum absorption band more than 300 nm) [1]: 372 nm
λem (excited at the longest maximum absorption band) [1]: 414 nm
λex (excited wavelength) [1]: 343 nm
τf (fluorescent lifetime) [1]: 0.9
ϕf (quantum yield) [1]: 0.09
melting point: 254 to 255 °C

Clc1ccc(-c2oc3cccc4[n+]3c2-c2ccccc2-4)cc1.F[B-](F)(F)F [3m, 1-(4-chlorophenyl)benzo[a]oxazolo[4,3,2-cd]indolizin-10-ium tetrafluoroborate]
ΔStokes (Stokes shift=λem−λabs) [1]: 040 nm
λabs (maximum absorption band more than 300 nm) [1]: 370 nm
λem (excited at the longest maximum absorption band) [1]: 410 nm
λex (excited wavelength) [1]: 339 nm
τf (fluorescent lifetime) [1]: 1.7
ϕf (quantum yield) [1]: 0.19
melting point: 274 to 275 °C

CN(C)c1ccc(-c2oc3cccc4[n+]3c2-c2ccccc2-4)cc1.F[B-](F)(F)F [3n, 1-(4-(dimethylamino)phenyl)benzo[a]oxazolo[4,3,2-cd]indolizin-10-ium tetrafluoroborate]
Staining / localization in mitochondria (MCF-7 cells): stains specifically the mitochondrial region
ΔStokes (Stokes shift=λem−λabs) [1]: 049 nm
λabs (maximum absorption band more than 300 nm) [1]: 506 nm
λem (excited at the longest maximum absorption band) [1]: 555 nm
λex (excited wavelength) [1]: 511 nm
τf (fluorescent lifetime) [1]: 9.1
ϕf (quantum yield) [1]: 0.76
melting point: 242 to 244 °C

COc1cccc(-c2oc3cccc4[n+]3c2-c2ccccc2-4)c1.F[B-](F)(F)F [3q, 1-(3-methoxyphenyl)benzo[a]oxazolo[4,3,2-cd]indolizin-10-ium tetrafluoroborate]
ΔStokes (Stokes shift=λem−λabs) [1]: 079 nm
λabs (maximum absorption band more than 300 nm) [1]: 376 nm
λem (excited at the longest maximum absorption band) [1]: 455 nm
λex (excited wavelength) [1]: 332 nm
τf (fluorescent lifetime) [1]: 2.0
ϕf (quantum yield) [1]: 0.20
melting point: 206 to 208 °C

COc1ccc(Cl)c(-c2cc3ccccc3c3cccc(=O)n23)c1 [3y″, 6-(2-chloro-5-methoxyphenyl)-4H-pyrido[2,1-a]isoquinolin-4-one]
melting point: 186 to 187 °C

Cc1ccc(/C=c2\c3ccccc3c3cccc(=O)n23)cc1Cl [3z″, (E)-6-(3-chloro-4-methylbenzylidene)pyrido[2,1-a]isoindol-4(6H)-one]
melting point: 194 to 195 °C

— US11021490B2, “Pyridinium oxazole dyad scaffold and a process for preparation thereof” (COUNCIL OF SCIENTIFIC AND INDUSTRIAL RESEARCH, priority 2016, dated 2021)
